Assay results from ChEMBL document CHEMBL5625209, “Rational design and optimization of acylthioureas as novel potent influenza virus non-nucleoside polymerase inhibitors” (Eur J Med Chem, 2023).

System: Influenza A virus
Assay: Antiviral activity against Influenza A virus H1N1 (A/Puerto Rico/8/34) harboring H274Y mutant infected in MDCK cells
Assay type: functional, organism-based

SMILES | EC50
CC(C)(C)c1ccc(C(=O)NC(=S)Nc2ccc(NC(=O)c3ccccc3)cc2)cc1 | 600 nM
CC(C)(C)c1ccc(C(=O)NC(=S)Nc2ccc(NC(=O)c3ccc(Cl)cc3)cc2)cc1 | 400 nM
CC(C)(C)c1ccc(C(=O)NC(=S)Nc2ccc(O)cc2)cc1 | 9400 nM
CCC(=O)Nc1ccc(NC(=S)NC(=O)c2ccc(C(C)(C)C)cc2)cc1 | 5400 nM
CC(C)(C)c1ccc(C(=O)NC(=S)Nc2ccc(NC(=O)c3ccc(C(C)(C)C)cc3)cc2)cc1 | 20 nM
